biological target: wild type PAN protein (PA endonuclease domain) (Influenza A virus, UniProt C3W5S0); experiment: biochemical; format: binding; settings: FP Ki

Compared with `O=C(NCCc1ccccc1)c1nc([C@@H]2CCCN2C(=O)COc2ccccc2F)[nH]c(=O)c1O` [Compound 9g], `O=C(NCCOc1ccccc1)c1nc([C@@H]2CCCN2C(=O)COc2ccccc2F)[nH]c(=O)c1O` [Compound 9h] is 3-fold lower in Ki: 1300 ± 400 nM for the first, 440 ± 30 nM for the second. The second binds more tightly here.

`COc1ccc(S(=O)(=O)CCNC(=O)c2nc([C@@H]3CCCN3C(=O)COc3ccccc3Cl)[nH]c(=O)c2O)cc1` [Compound 10f] and `O=C(NCCS(=O)(=O)c1ccccc1)c1nc([C@@H]2CCCN2C(=O)COc2ccccc2Cl)[nH]c(=O)c1O` [Compound 10d] are within error of each other in Ki: 38 ± 9 nM for the first, 46 ± 1 nM for the second.

Compared with `O=C(NCCc1ccccc1)c1nc([C@@H]2CCCN2C(=O)CCc2ccccc2F)[nH]c(=O)c1O` [Compound 9c], `O=C(NCCc1ccccc1)c1nc([C@@H]2CCCN2C(=O)CCc2ccccc2Cl)[nH]c(=O)c1O` [Compound 9a] is 3.1-fold lower in Ki: 3700 ± 800 nM for the first, 1200 ± 200 nM for the second.

First: O=C(NCCOc1ccccc1)c1nc([C@@H]2CCCN2C(=O)CSc2ccccc2F)[nH]c(=O)c1O [Compound 9m]
Second: O=C(NCCc1ccccc1)c1nc([C@@H]2CCCN2C(=O)CSc2ccccc2F)[nH]c(=O)c1O [Compound 9l]
The Ki of the first is 5-fold lower: 240 ± 30 nM for the first, 1200 ± 100 nM for the second. The first binds more tightly here.

`O=C(NCCOc1ccccc1)c1nc([C@@H]2CCCN2C(=O)c2c(Cl)cncc2Cl)[nH]c(=O)c1O` [Compound 8d] and `O=C(NCC1Cc2ccccc2C1)c1nc([C@@H]2CCCN2C(=O)c2c(Cl)cncc2Cl)[nH]c(=O)c1O` [Compound 8h] are within error of each other in Ki: 50 ± 20 nM for the first, 100 ± 30 nM for the second.

Going from `COCCNC(=O)c1nc([C@@H]2CCCN2C(=O)COc2ccccc2)[nH]c(=O)c1O` [Compound 6e] to `O=C(NCCOc1ccccc1)c1nc([C@@H]2CCCN2C(=O)CCc2ccccc2F)[nH]c(=O)c1O` [Compound 9d], the Ki falls from 1600 nM to 500 ± 100 nM (3.2-fold).

`O=C(NCCc1ccccc1)c1nc([C@@H]2CCCN2C(=O)C[S+]([O-])c2ccccc2Cl)[nH]c(=O)c1O` (stereo partly shown) [Compound 9j] and `O=C(NCCc1ccccc1)c1nc([C@@H]2CCCN2C(=O)CSc2ccccc2Cl)[nH]c(=O)c1O` [Compound 9i] are within error of each other in Ki: 400 ± 70 nM for the first, 290 ± 40 nM for the second.

First: Cn1c([C@@H]2CCCN2C(=O)c2c(Cl)cncc2Cl)nc(C(=O)NCCc2ccccc2)c(O)c1=O [Compound 8b]
Second: Cn1c([C@@H]2CCCN2C(=O)c2c(Cl)cncc2Cl)nc(C(=O)NC2Cc3ccccc3C2)c(O)c1=O [Compound 8g]
The Ki of the first is 24-fold lower: 70 ± 20 nM for the first, 1700 ± 100 nM for the second.

Compared with `O=C(NCCc1ccccc1)c1nc([C@@H]2CCCN2C(=O)c2ccnc(Cl)c2)[nH]c(=O)c1O` [Compound 7e], `O=C(NCCc1ccccc1)c1nc([C@@H]2CCCN2C(=O)c2cc(Cl)ncc2Cl)[nH]c(=O)c1O` [Compound 7d] is 180-fold lower in Ki: 17500 ± 1100 nM for the first, 100 ± 20 nM for the second. The second binds more tightly here.

`O=C(NCc1cccc(C(F)(F)F)c1)c1nc([C@@H]2CCCN2C(=O)c2c(Cl)cncc2Cl)[nH]c(=O)c1O` [Compound 8a] and `O=C(NCCc1cccc(C(F)(F)F)c1)c1nc([C@@H]2CCCN2C(=O)c2c(Cl)cncc2Cl)[nH]c(=O)c1O` [Compound 8c] are within error of each other in Ki: 160 ± 40 nM for the first, 100 ± 30 nM for the second.

First: O=C(NCCSc1ccccc1)c1nc([C@@H]2CCCN2C(=O)COc2ccccc2Cl)[nH]c(=O)c1O [Compound 10a]
Second: O=C(NCC[S+]([O-])c1ccccc1)c1nc([C@@H]2CCCN2C(=O)COc2ccccc2Cl)[nH]c(=O)c1O (stereo partly shown) [Compound 10c]
The Ki of the first is 2.8-fold higher: 560 ± 20 nM for the first, 200 ± 30 nM for the second. The second binds more tightly here.

Compared with `O=C(NCc1cc2ccccc2o1)c1nc([C@@H]2CCCN2C(=O)CSc2ccccc2Cl)[nH]c(=O)c1O` [Compound 10l], `O=C(NC1Cc2ccccc2C1)c1nc([C@@H]2CCCN2C(=O)COc2ccccc2Cl)[nH]c(=O)c1O` [Compound 10h] is 2.1-fold lower in Ki: 1000 ± 200 nM for the first, 470 ± 70 nM for the second.

For `O=C(NCCc1ccncc1)c1nc([C@@H]2CCCN2C(=O)COc2ccccc2F)[nH]c(=O)c1O` [Compound 10n], the Ki was 256 ± 7 nM.

same assay, conditions: WT FP Ki

`O=C(NCCOc1ccccc1)c1nc([C@@H]2CCCN2C(=O)COc2ccccc2Cl)[nH]c(=O)c1O` [Compound 9f] and `O=C(NCCc1ccccn1)c1nc([C@@H]2CCCN2C(=O)COc2ccccc2F)[nH]c(=O)c1O` [Compound 10m] are within error of each other in Ki: 500 ± 200 nM for the first, 400 ± 200 nM for the second.

same assay, conditions: read-out: WT FP Ki

`O=C(O)C(=O)CC(=O)c1ccccc1` [DPBA, reference compound] showed a Ki of 3700 ± 500 nM.

test system: influenza virus A/Puerto Rico/8/34 (H1N1); experiment: microbe, parasite or virus in culture; format: cell-based; settings: H1N1, MDCK, read-out: plaque IC50

`COc1ccc(S(=O)(=O)CCNC(=O)c2nc([C@@H]3CCCN3C(=O)CSc3ccccc3Cl)[nH]c(=O)c2O)cc1` [Compound 10g] and `O=C(NCCOc1ccccc1)c1nc([C@@H]2CCCN2C(=O)CSc2ccccc2Cl)[nH]c(=O)c1O` [Compound 9k] are within 1.5-fold of each other in IC50: 9100 nM for the first, 7200 nM for the second.

Work on `O=C(NCCOc1ccccc1)c1nc([C@@H]2CCCN2C(=O)CCc2ccccc2Cl)[nH]c(=O)c1O` [Compound 9b] yielded an IC50 of 6600 nM.

From publication PMC5719402, “Protein-Structure Assisted Optimization of 4,5-Dihydroxypyrimidine-6-Carboxamide Inhibitors of Influenza Virus Endonuclease” (Scientific Reports, 2017)
